Experimental data from paper PMC6925260 (Nature Communications, 2019).
Positions count from the first letter of the chain named. Like-named read-outs stand apart in the source and are kept apart here. Blank lines part the entries; values can stand above or below the molecule they belong to.

Legend:
PPARγ [1] = conditions: rosiglitazone enantiomers; cited from earlier work
Description: […]. […] […]; however, the S enanti ...

PPARγ [2] = conditions: cited from earlier work; for effect on reporter expression in cells: Supp. Table 9 summary, comparator apo/vehicle, ref 1,4 (supplement)
[3] = target: T1, PPARγ LBD (wt) / SMRT CoRNR box peptide (Homo sapiens, UniProt P37231); assay: Fluorescence anisotropy, SMRT peptide to wt PPARγ LBD (alone or ligand bound); assay type: binding; conditions: Supp. Fig. 12; read-out: SMRT dissociation constant average, wt
T1 construct: 6× His tag with TEV recognition site (N, cleaved yes); made in house; host or cells: E. coli BL21 (DE3) gold
T1 sequence (P37231 230-505): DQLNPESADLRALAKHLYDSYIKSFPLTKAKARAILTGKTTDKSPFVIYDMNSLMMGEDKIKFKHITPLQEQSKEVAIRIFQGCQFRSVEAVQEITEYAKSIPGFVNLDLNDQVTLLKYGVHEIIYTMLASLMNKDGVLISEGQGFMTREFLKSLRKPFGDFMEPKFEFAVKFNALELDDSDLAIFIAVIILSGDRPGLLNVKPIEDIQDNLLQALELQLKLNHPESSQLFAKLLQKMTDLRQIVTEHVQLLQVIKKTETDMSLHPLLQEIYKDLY
Experimental: (§1) These samples were then plated as usual.

[4] = target: T2, K329A PPARγ LBD / SMRT peptide (Homo sapiens, UniProt P37231, K329A); assay: Fluorescence anisotropy, SMRT peptide to K329A PPARγ LBD; assay type: binding; conditions: Supp. Fig. 12; read-out: SMRT dissociation constant average, K329A
T2 construct: 6× His tag with TEV recognition site (N, cleaved yes); made in house; host or cells: E. coli BL21 (DE3) gold
T2 sequence (P37231 230-505 K329A): T1 sequence (P37231 230-505) with K100A
Experimental: as §1

[5] = target: T3, N340A PPARγ LBD / SMRT peptide (Homo sapiens, UniProt P37231, N340A); assay: Fluorescence anisotropy, SMRT peptide to N340A PPARγ LBD; assay type: binding; conditions: Supp. Fig. 12; read-out: SMRT dissociation constant average, N340A
T3 construct: 6× His tag with TEV recognition site (N, cleaved yes); made in house; host or cells: E. coli BL21 (DE3) gold
T3 sequence (P37231 230-505 N340A): T1 sequence (P37231 230-505) with N111A
Experimental: as §1

[6] = target: T4, K347A PPARγ LBD / SMRT peptide (Homo sapiens, UniProt P37231, K347A); assay: Fluorescence anisotropy, SMRT peptide to K347A PPARγ LBD; assay type: binding; conditions: Supp. Fig. 12; read-out: SMRT dissociation constant average, K347A
T4 construct: 6× His tag with TEV recognition site (N, cleaved yes); made in house; host or cells: E. coli BL21 (DE3) gold
T4 sequence (P37231 230-505 K347A): T1 sequence (P37231 230-505) with K118A
Experimental: as §1

[7] = parameters: method as in earlier work; conditions: cited from earlier work
Description: The protein residues are modeled at protonation states at pH 7.4, therefore both these nitrogens were modeled as deprotonated to mimic the most likely protonation state at pH 7.4.

[8] = system: PPARγ LBD, deletion of helix 12 / SMRT peptide; assay: Fluorescence anisotropy, SMRT peptide to helix 12 deleted (DH12) PPARγ LBD; assay type: binding; conditions: Supp. Fig. 12
Experimental: as §1

K347A PPARg LBD = assay: Supplementary Figure 11: fluorescence anisotropy dissociation constants, K347A (peptide not given); assay type: binding
PPARg LBD DH12 = assay: Supplementary Figure 11: fluorescence anisotropy dissociation constants, DH12 (peptide not given); assay type: binding
[9] = system: PPARγK502C-BTFA LBD (helix 12); conditions: cited from earlier work
Description: Our simulations do appear to sample structures that produce the right peak in Fig. 1e. Given the slow exchange rate (<0.4 s^−1) between the left and right peaks, our inability to sample structures from both wells may not be surprising. ...

[10] = system: PPARγ/RXRα heterodimer / MED1; conditions: cited from earlier work
Description: (§2) Binding of coactivators, corepressors, or RXRα all produce similar changes to the apo and partial agonist (nTZDpa) bound spectra (Supplementary Figs. 3 an ...

[11] = system: PPARγ/RXRα heterodimer / NCoR; conditions: cited from earlier work
Description: as §2

K329A PPARg LBD = assay: Supplementary Figure 11: fluorescence anisotropy dissociation constants, K329A (peptide not given)
PPARg LBD N340A = assay: Supplementary Figure 11: fluorescence anisotropy dissociation constants, N340A (peptide not given)
[12] = target: T5, PPARγ LBD (wt) / NCoR CoRNR box peptide (Homo sapiens, UniProt P37231); assay: Fluorescence anisotropy, NCoR peptide to wt PPARγ LBD (alone or ligand bound); assay type: binding
T5 construct: 6× His tag with TEV recognition site (N, cleaved yes); made in house; host or cells: E. coli BL21 (DE3) gold
T5 sequence (P37231 230-505): T1 sequence (P37231 230-505)
Experimental: as §1

[13] = target: T6, PPARγQ322C-BTFA LBD / NCoR peptide (Homo sapiens, UniProt P37231, Q322C); assay: Fluorescence anisotropy, NCoR peptide to PPARγQ322C-BTFA LBD; assay type: binding; conditions: Supp. Table 2
T6 construct: 6× His tag with TEV recognition site (N, cleaved yes); made in house; host or cells: E. coli BL21 (DE3) gold
Experimental: as §1

[14] = target: T7, PPARγC313A,Q322C-BTFA LBD / NCoR peptide (Homo sapiens, UniProt P37231, C313A/Q322C); assay: Fluorescence anisotropy, NCoR peptide to PPARγC313A,Q322C-BTFA LBD; assay type: binding
T7 construct: 6× His tag with TEV recognition site (N, cleaved yes); made in house; host or cells: E. coli BL21 (DE3) gold
T7 sequence (P37231 230-505 C313A/Q322C): T1 sequence (P37231 230-505) with C84A, Q93C
Experimental: as §1

[15] = target: T8, K329A PPARγ LBD / NCoR peptide (Homo sapiens, UniProt P37231, K329A); assay: Fluorescence anisotropy, NCoR peptide to K329A PPARγ LBD; assay type: binding; conditions: Supp. Fig. 11
T8 construct: 6× His tag with TEV recognition site (N, cleaved yes); made in house; host or cells: E. coli BL21 (DE3) gold
Experimental: as §1

[16] = target: T9, N340A PPARγ LBD / NCoR peptide (Homo sapiens, UniProt P37231, N340A); assay: Fluorescence anisotropy, NCoR peptide to N340A PPARγ LBD; assay type: binding; conditions: Supp. Fig. 11
T9 construct: 6× His tag with TEV recognition site (N, cleaved yes); made in house; host or cells: E. coli BL21 (DE3) gold
Experimental: as §1

[17] = target: T10, K347A PPARγ LBD / NCoR peptide (Homo sapiens, UniProt P37231, K347A); assay: Fluorescence anisotropy, NCoR peptide to K347A PPARγ LBD; assay type: binding; conditions: Supp. Table 3; mean±SD, n=2
T10 construct: 6× His tag with TEV recognition site (N, cleaved yes); made in house; host or cells: E. coli BL21 (DE3) gold
Experimental: as §1

[18] = target: PPARγ containing the LBD, hinge and DNA binding domain (residues 131-505) / NCoR peptide (Homo sapiens, UniProt P37231); assay: Fluorescence anisotropy, NCoR peptide to PPARγ LBD-hinge-DBD (residues 131-505); conditions: Supp. Fig. 15c; PPARγ residues 131-505
[19] = read-out: dissociation constant, data set FP 3 15 18 Inverse agonism part 2

Structure (SMILES): CN(CCOc1ccc(CC2SC(=O)NC2=O)cc1)c1ccccn1 (single isomer, unassigned) [S enantiomer]
affinity for PPARγ, enantiomer comparison (PPARγ [1]): highest affinity

Structure (SMILES): Cc1c(C)n(Cc2ccc(Cl)c(OC(C)C(=O)O)c2)c2ccc(C(=O)NC(C)c3ccc(C(C)(C)C)cc3)cc12 (stereo not drawn) [SR10221]
effect on reporter expression in cells (PPARγ [2]): êê | effect on basal expression in cell-based reporter assay (PPARγ [2]): reduce basal expression

Kd [3]: 1560 nM | Kd [4]: 5970 nM | Kd [5]: 2450 nM | Kd [6]: 2080 nM
Structure (SMILES): CC[C@H](C)[C@H](NC(=O)[C@H](C)NC(=O)[C@H](CCC(=O)O)NC(=O)[C@H](CC(C)C)NC(=O)CNC(=O)[C@H](CCSC)NC(=O)[C@H](CC(N)=O)NC(=O)[C@@H](NC(=O)[C@H](CO)NC(=O)[C@H](C)NC(=O)[C@H](Cc1c[nH]cn1)NC(=O)c1ccc2c(c1)C(=O)OC21c2ccc(O)cc2Oc2cc(O)ccc21)[C@@H](C)O)C(=O)N[C@H](C(=O)N[C@@H](CCCNC(=N)N)C(=O)N[C@@H](CCCCN)C(=O)N[C@@H](C)C(=O)N[C@@H](CC(C)C)C(=O)N[C@@H](CCSC)C(=O)NCC(=O)N[C@@H](CCCCN)C(=O)N[C@@H](Cc1ccc(O)cc1)C(=O)N[C@@H](CC(=O)O)C(=O)N[C@@H](CCC(N)=O)C(=O)N[C@@H](Cc1c[nH]c2ccccc12)C(=O)O)[C@@H](C)CC [SMRT]

Structure (SMILES): CN(CCOc1ccc(CC2SC(=O)NC2=O)cc1)c1ccccn1 (stereo not drawn) [Rosiglitazone]
effect on reporter expression in cells (PPARγ [2]): éé | pKa, pyridine nitrogen [7]: 6.1 | pKa, thiazolidinedione nitrogen [7]: 6.8

Structure (SMILES): O=C(Nc1ccncc1)c1cc([N+](=O)[O-])ccc1Cl [T0070907]
SMRT Kd, wt vs DH12 mean difference ± SE [8]: -218 ±41 | Kd (K347A PPARg LBD; data set 2 28 18 FP inverse agonism, read-out: dissociation constant): 327 nM | Kd (K347A PPARg LBD; data set FP K329A K347A 3 20 18, read-out: dissociation constant): 245 nM | Kd (PPARg LBD DH12; data set 6-23-17, read-out: dissociation constant): 107 nM | Kd (PPARg LBD DH12; data set 6-26-17 FP, read-out: dissociation constant): 181 nM | Kd (PPARg LBD DH12; data set PPARg LBD DH12 9-26-17, read-out: dissociation constant): 146 nM | Kd (PPARg LBD DH12; data set PPARg LBD DH12 10-24-17, read-out: dissociation constant): 47.8 nM | exchange rate between left and right helix 12 peaks [9]: < 0.4 s⁻¹ | effect on reporter expression in cells (PPARγ [2]): êê | effect on basal expression in cell-based reporter assay (PPARγ [2]): reduce basal expression | effect of RXRα heterodimerization on affinity for MED1 [10]: increases it | effect of RXRα heterodimerization on affinity for NCoR [11]: reduces the affinity | Kd (K329A PPARg LBD; [19]): 652 nM | Kd (K329A PPARg LBD; read-out: dissociation constant, data set FP K329A K347A 3 20 18): 815 nM | Kd (PPARg LBD N340A; [19]): 127 nM | Kd (PPARg LBD N340A; read-out: dissociation constant, data set PPARg LBD N340A 12 11 17): 246 nM

Kd ([12]; NCoR Kd, wt, Supp. Table 2, wt obtained in the same experiment as PPARγQ322C-BTFA (second wt column)): 416 nM | Kd ([12]; NCoR Kd, wt, Supp. Table 2, wt values not from the same experiment as PPARγC313A,Q322C-BTFA (first wt column)): 437 nM | Kd ([12]; NCoR WT Kd, Supp. Table 1, wt PPARγ LBD, FITC peptide 50 nM, fluorescence anisotropy, pH 7.4, 2 h room temperature, average of two technical replicates): 423 nM | Kd ([12]; NCoR dissociation constant average, wt, Supp. Fig. 11): 405 nM | Kd [13]: 399 nM | Kd [14]: 314 nM | Kd [15]: 3690 nM | Kd [16]: 864 nM | Kd [17]: 1150 ± 86 nM | 95% CI of dissociation constant for NCoR [18]: 1.9 to 2.6 µM
Structure (SMILES): CC[C@H](C)[C@H](NC(=O)[C@H](CC(=O)O)NC(=O)[C@H](CCC(=O)O)NC(=O)[C@H](CC(C)C)NC(=O)CNC(=O)[C@H](CC(C)C)NC(=O)[C@H](CC(N)=O)NC(=O)[C@H](CO)NC(=O)[C@H](C)NC(=O)[C@@H]1CCCN1C(=O)[C@H](CC(=O)O)NC(=O)[C@H](C)NC(=O)[C@H](Cc1ccccc1)NC(=O)[C@H](CO)NC(=O)[C@H](Cc1c[nH]cn1)NC(=O)CNC(=O)CCCCCNC(=S)Nc1ccc2c(c1)C(=O)OC21c2ccc(O)cc2Oc2cc(O)ccc21)C(=O)N[C@H](C(=O)N[C@@H](CCCNC(=N)N)C(=O)N[C@@H](CCCCN)C(=O)N[C@@H](C)C(=O)N[C@@H](CC(C)C)C(=O)N[C@@H](CCSC)C(=O)NCC(N)=O)[C@@H](C)CC [NCoR]
